The data set in a line: Production of drug-loaded fibers without SRCC by electrospinning. To be noted: PCL in chloroform/acetone. How it is done: The spinning dispersion was prepared by mixing the solid carriers into a 15%, w/w solution of PCL, that was dissolved in a mix of chloroform/acetone, (40/60,w/w). The polymer solution was prepared separately. Therefore, the polymer was added slowly to avoid formation of clumps and subsequently stirred for at least 24 h at room temperature.
The emitter was an assembly of 4 blunt needles (21G) that were surrounded by nitrogen gas saturated with acetone (Figure 3 b)) to avoid bearding at the tip of the needles due to fast evaporation of solvents from the polymer solution. The lateral movement was adapted to the width of the drum collector (0.3 m) at a speed of approx. 0.1 m/s. Working distance (distance between emitter and collector) was 0.2 m and liquid feed rate was kept at 3ml/h for each needle using a syringe pump. A total of 30 ml was spun. The potential was adjusted to approx. -20kV ± 2kV in order to maintain a stable spray. The dimensions of the collector (rotating drum) were 0.3 m in width and a diameter of 0.1 m. The drum was rotated at 500 rpm. The drum was covered with aluminum and finally coated with magnesium-stearate to avoid the product from adhering/sticking to the aluminum foil. The process was constantly supervised. Needles were cleaned and the electric potential was adjusted when necessary to maintain a stable spinning process.

As to `Nc1nc2c(ncn2COCCO)c(=O)[nH]1` [Acyclovir], the “solubility in the spinning solution” value is “too low”.

The values above are taken from patent EP4567167A1, “ELECTROSPUN FIBERS COMPRISING SURFACE-REACTED CALCIUM CARBONATE AND ACTIVE INGREDIENTS” (Omya International AG, priority 2023, dated 2025).
